In paper PMC7872314, “Modeling Bioavailable Concentrations in Zebrafish Cell Lines and Embryos Increases the Correlation of Toxicity Potencies across Test Systems” (Environmental Science & Technology, 2020):
Read-outs that look alike come from different tables or passages of the source.

How the values were obtained:
[1] = test system: ZF4 (fibroblasts) cell line; experiment: MTS assay (MTS/BCA multiplex), NAD(P)H metabolism; format: cell-based, zebrafish (Danio rerio); conditions: Danio rerio, Fibroblast
[2] = test system: ZFL (hepatocytes) cell line; experiment: cells; format: cell-based, zebrafish (Danio rerio); conditions: Danio rerio, Hepatocyte
[3] = test system: ZF4 (fibroblasts) cell line; experiment: BCA assay (MTS/BCA multiplex), protein amount; format: cell-based, zebrafish (Danio rerio); conditions: Danio rerio, Fibroblast
[4] = test system: ZFL (hepatocytes) cell line; experiment: cells; format: cell-based, zebrafish (Danio rerio); conditions: Danio rerio, Hepatocyte; remark: listed apart in the source
[5] = test system: ZF4 (fibroblasts) cell line; experiment: ATP assay (ATP/LDH multiplex), ATP metabolism; format: cell-based, zebrafish (Danio rerio); conditions: Danio rerio, Fibroblast
[6] = test system: ZFL (hepatocytes) cell line; experiment: cells; format: cell-based, zebrafish (Danio rerio); conditions: Danio rerio, Hepatocyte; remark: listed apart in the source
[7] = test system: ZF4 (fibroblasts) cell line; experiment: alamarBlue (AB) endpoint of AB/CFDA/NR multiplex, cellular respiration; format: cell-based, zebrafish (Danio rerio); conditions: Danio rerio, Fibroblast
[8] = test system: ZFL (hepatocytes) cell line; experiment: cells; format: cell-based, zebrafish (Danio rerio); conditions: Danio rerio, Hepatocyte; remark: listed apart in the source
[9] = test system: ZF4 (fibroblasts) cell line; experiment: CFDA endpoint of AB/CFDA/NR multiplex, membrane stability; format: cell-based, zebrafish (Danio rerio); conditions: Danio rerio, Fibroblast
[10] = test system: ZFL (hepatocytes) cell line; experiment: cells; format: cell-based, zebrafish (Danio rerio); conditions: Danio rerio, Hepatocyte; remark: listed apart in the source
[11] = test system: ZF4 (fibroblasts) cell line; experiment: Neutral red, absorbance (NRa), AB/CFDA/NR multiplex, lysosome stability; format: cell-based, zebrafish (Danio rerio); conditions: Danio rerio, Fibroblast
[12] = test system: ZFL (hepatocytes) cell line; experiment: cells; format: cell-based, zebrafish (Danio rerio); conditions: Danio rerio, Hepatocyte; remark: listed apart in the source
[13] = test system: ZF4 (fibroblasts) cell line; experiment: Neutral red, fluorescence (NRf), AB/CFDA/NR multiplex, lysosome stability; format: cell-based, zebrafish (Danio rerio); conditions: Danio rerio, Fibroblast
[14] = test system: ZFL (hepatocytes) cell line; experiment: cells; format: cell-based, zebrafish (Danio rerio); conditions: Danio rerio, Hepatocyte; remark: listed apart in the source
zebrafish embryos [15] = experiment: animal or person; format: in vivo, zebrafish (Danio rerio); conditions: for EC50: Danio rerio
ZF4 and ZFL cell lines = experiment: Cytotoxicity assays, all endpoints, both cell lines (mean/range); format: cell-based, zebrafish (Danio rerio); conditions: 48 h, mean of all cytotoxicity endpoints (without LDH) in ZF4 and ZFL
[16] = test system: zebrafish cell lines vs zebrafish embryo; experiment: Potency ratios IC50;x/EC50;x (cytotoxicity assays vs mFET); set-up: species or system zebrafish (Danio rerio)
zebrafish embryos [17] = test system: zebrafish embryos; set-up: method as in earlier work; conditions: nominal, cited from earlier work
[18] = test system: diverse mammalian cell assay results; set-up: method as in https://comptox.epa.gov/dashboard/; conditions: COMPTOX; ref https://comptox.epa.gov/dashboard/; read-out: median AC50; cited from earlier work
[19] = ref Comptox, PubChem or DrugBank; cited from earlier work

Work on `COC(=O)Nc1nc2ccc(Sc3ccccc3)cc2[nH]1` [Fenbendazole, fenbendazole] yielded an IC50 ([1]; MTS - ZF4, log10 of IC50, read-out: LogIC50 (converted)) of 5840 nM, an IC50 ([1]; MTS - ZF4, read-out: IC50) of 5840 nM and an IC50 ([1]; ZF4, 48 h exposure, nominal, log10, read-out: logIC50 (log10 IC50;nom) MTS (converted)) of 5890 nM. For the same compound, the IC50 ([1]; ZF4, 48 h exposure, nominal, read-out: IC50;nom MTS) was 5840 nM, the IC50 ([2]; MTS - ZFL, log10 of IC50, read-out: LogIC50 (converted)) was 166 nM and the IC50 ([2]; MTS - ZFL, read-out: IC50) was 166 nM. The IC50 ([2]; ZFL, 48 h exposure, nominal, log10, read-out: logIC50 (log10 IC50;nom) MTS (converted)) was 166 nM, the IC50 ([2]; ZFL, 48 h exposure, nominal, read-out: IC50;nom MTS) was 166 nM and the IC50 ([3]; BCA - ZF4, log10 of IC50, read-out: LogIC50 (converted)) was 1150 nM. It also gave an IC50 ([3]; BCA - ZF4, read-out: IC50) of 1150 nM, an IC50 ([3]; ZF4, 48 h exposure, nominal, log10, read-out: logIC50 (log10 IC50;nom) BCA (converted)) of 1150 nM and an IC50 ([3]; ZF4, 48 h exposure, nominal, read-out: IC50;nom BCA) of 1150 nM. It also gave an IC50 ([4]; BCA - ZFL, log10 of IC50, read-out: LogIC50 (converted)) of 125 nM, an IC50 ([4]; BCA - ZFL, read-out: IC50) of 125 nM and an IC50 ([4]; ZFL, 48 h exposure, nominal, log10, read-out: logIC50 (log10 IC50;nom) BCA (converted)) of 126 nM. The IC50 ([4]; ZFL, 48 h exposure, nominal, read-out: IC50;nom BCA) was 125 nM, the IC50 ([5]; ATP - ZF4, log10 of IC50, read-out: LogIC50 (converted)) was 7490 nM and the IC50 ([5]; ATP - ZF4, read-out: IC50) was 7490 nM. The IC50 ([5]; ZF4, 48 h exposure, nominal, log10, read-out: logIC50 (log10 IC50;nom) ATP (converted)) was 7410 nM, the IC50 ([5]; ZF4, 48 h exposure, nominal, read-out: IC50;nom ATP) was 7490 nM and the IC50 ([6]; ATP - ZFL, log10 of IC50, read-out: LogIC50 (converted)) was 9850 nM. It also gave an IC50 ([6]; ATP - ZFL, read-out: IC50) of 9850 nM, an IC50 ([6]; ZFL, 48 h exposure, nominal, log10, read-out: logIC50 (log10 IC50;nom) ATP (converted)) of 9770 nM and an IC50 ([6]; ZFL, 48 h exposure, nominal, read-out: IC50;nom ATP) of 9850 nM. It also gave an IC50 ([7]; AB - ZF4, log10 of IC50, read-out: LogIC50 (converted)) of 3570 nM, an IC50 ([7]; AB - ZF4, read-out: IC50) of 3570 nM and an IC50 ([7]; ZF4, 48 h exposure, nominal, log10, read-out: logIC50 (log10 IC50;nom) AB (converted)) of 3550 nM. The IC50 ([7]; ZF4, 48 h exposure, nominal, read-out: IC50;nom AB) was 3570 nM, the IC50 ([8]; AB - ZFL, log10 of IC50, read-out: LogIC50 (converted)) was 985 nM and the IC50 ([8]; AB - ZFL, read-out: IC50) was 985 nM. The IC50 ([8]; ZFL, 48 h exposure, nominal, log10, read-out: logIC50 (log10 IC50;nom) AB (converted)) was 977 nM, the IC50 ([8]; ZFL, 48 h exposure, nominal, read-out: IC50;nom AB) was 985 nM and the IC50 ([9]; CFDA - ZF4, log10 of IC50, read-out: LogIC50 (converted)) was 49500 nM. It also gave an IC50 ([9]; CFDA - ZF4, read-out: IC50) of 49500 nM, an IC50 ([9]; ZF4, 48 h exposure, nominal, log10, read-out: logIC50 (log10 IC50;nom) CFDA (converted)) of 49000 nM and an IC50 ([9]; ZF4, 48 h exposure, nominal, read-out: IC50;nom CFDA) of 49500 nM. For the same compound, the IC50 ([10]; CFDA - ZFL, log10 of IC50, read-out: LogIC50 (converted)) was 21400 nM, the IC50 ([10]; CFDA - ZFL, read-out: IC50) was 21400 nM and the IC50 ([10]; ZFL, 48 h exposure, nominal, log10, read-out: logIC50 (log10 IC50;nom) CFDA (converted)) was 21400 nM. For the same compound, the IC50 ([10]; ZFL, 48 h exposure, nominal, read-out: IC50;nom CFDA) was 21400 nM, the IC50 ([11]; NR-abs - ZF4, log10 of IC50, read-out: LogIC50 (converted)) was 1550 nM and the IC50 ([11]; NR-abs - ZF4, read-out: IC50) was 1550 nM. For the same compound, the IC50 ([11]; ZF4, 48 h exposure, nominal, log10, read-out: logIC50 (log10 IC50;nom) NRa (converted)) was 1550 nM, the IC50 ([11]; ZF4, 48 h exposure, nominal, read-out: IC50;nom NRa) was 1550 nM and the IC50 ([11]; ZF4 cell line, NRa endpoint, nominal, read-out: IC50;nom) was 0.46 µg/mL. The IC50 ([12]; NR-abs - ZFL, log10 of IC50, read-out: LogIC50 (converted)) was 532 nM, the IC50 ([12]; NR-abs - ZFL, read-out: IC50) was 532 nM and the IC50 ([12]; ZFL, 48 h exposure, nominal, log10, read-out: logIC50 (log10 IC50;nom) NRa (converted)) was 537 nM. It also gave an IC50 ([12]; ZFL, 48 h exposure, nominal, read-out: IC50;nom NRa) of 532 nM, an IC50 ([13]; NR-fluo - ZF4, log10 of IC50, read-out: LogIC50 (converted)) of 10400 nM and an IC50 ([13]; NR-fluo - ZF4, read-out: IC50) of 10400 nM. For the same compound, the IC50 ([13]; ZF4, 48 h exposure, nominal, log10, read-out: logIC50 (log10 IC50;nom) NRf (converted)) was 10500 nM, the IC50 ([13]; ZF4, 48 h exposure, nominal, read-out: IC50;nom NRf) was 10400 nM and the IC50 ([14]; NR-fluo - ZFL, log10 of IC50, read-out: LogIC50 (converted)) was 584 nM. For the same compound, the IC50 ([14]; NR-fluo - ZFL, read-out: IC50) was 584 nM, the IC50 ([14]; ZFL, 48 h exposure, nominal, log10, read-out: logIC50 (log10 IC50;nom) NRf (converted)) was 589 nM and the IC50 ([14]; ZFL, 48 h exposure, nominal, read-out: IC50;nom NRf) was 584 nM. The “difference in toxicity (EC50;nom) between 48 hpf and 144 hpf” value (zebrafish embryos [15]; 48 hpf time point less sensitive than 144 hpf) was “approximately the same”, the “log EC50;nom (mFET)” value (zebrafish embryos [15]; 48 hpf, nominal, log10, listed as Fen) was -7.115 M and the EC50 (zebrafish embryos [15]; 48 hpf, nominal, log10, read-out: log EC50;nom (mFET) (converted)) was 77.6 nM. For the same compound, the EC50 (zebrafish embryos [15]; 48 hpf, nominal, read-out: EC50;nom (embryo)) was 0.02 µg/mL, the EC50 (zebrafish embryos [15]; read-out: EC50 48hpf) was 76.8 nM and the EC50 (zebrafish embryos [15]; read-out: EC50;nom (mFET)) was 76.8 nM. For the same compound, the IC50 (ZF4 and ZFL cell lines; Danio rerio, log10, read-out: Mean log IC50nom (converted)) was 2400 nM, the “Mean log IC50nom” value (ZF4 and ZFL cell lines; log10, listed as Fen) was -5.623 M and the “potency ratio IC50;nom/EC50;nom (median)” value ([16]; median over cytotoxicity endpoints, nominal, 48 h cells / 48 hpf mFET) was 33.3. The “difference in sensitivity between embryo (EC50;nom) and cells (IC50;nom)” value ([16]; nominal concentrations, higher potency in the mFET) was “two to three log-scales more sensitive in the mFET”, the EC50 (zebrafish embryos [17]; 144 hpf, converted) was 80.2 nM and the “logEC50 144 hpf” value (zebrafish embryos [17]; log10) was -7.0959 M. The AC50 [18] was 900 nM, the BCF [19] was 1.18E+03 and the Physiological charge [19] was 0. For the same compound, the “Water Solubility” value [19] was “insoluble”, the logKoa [19] was 9.49 and the logKow [19] was 3.21. For the same compound, the “pKa (Strongest Acidic)” value [19] was 9.59, the “pKa (Strongest Basic)” value [19] was 4.06 and the “w_solubility (water solubility)” value [19] was 26.7 µM.
